Assay results from publication PMC2816240 (European Journal of Nuclear Medicine and Molecular Imaging, 2009).

Legend:
male Wistar rats [1] = type: in vivo, rat; settings: 20 h post-injection, n = 5 rats, vs PBS
male Wistar rats [2] = experiment: Adverse effects of injection in rats; type: in vivo; settings: peptide #6 0.2, 1 or 5 mg per rat i.v.

In the case of “ENFVAFVDKCCAADDKEA CFAVEGPKLVVSTQTALA [peptide #6]”, the “uptake of 111In-octreotide in the pancreas and other organs” value (male Wistar rats [1]; peptide #6 5 mg i.v.) was “unaffected”, the “uptake of 111In-minigastrin and 111In-exendin in organs other than the kidneys” value (male Wistar rats [1]; peptide #6 i.v.) was “not affected” and the “adverse effects of injection” value (male Wistar rats [2]) was “no adverse effects”.
